From publication PMC10707724, “Dual Effects of 3-epi-betulin from Daphniphyllum glaucescens in Suppressing SARS-CoV-2-Induced Inflammation and Inhibiting Virus Entry” (International Journal of Molecular Sciences, 2023)

How the values were obtained:
Type in all cases: cell-based
[1] = system: SARS-CoV-2 Omicron (BA.1); test: microbe, parasite or virus in culture; details: Omicron (BA.1), compared with the other variants
SARS-CoV-2 SEMpv (N501Y) = details: read-out: EC50, pseudovirus entry
SARS-CoV-2 SEMpv (D614G) = details: read-out: EC50, pseudovirus entry

In the case of C=C(C)[C@@H]1CC[C@]2(CO)CC[C@]3(C)[C@H](CC[C@@H]4[C@@]5(C)CC[C@@H](O)C(C)(C)[C@@H]5CC[C@]43C)[C@@H]12 [Compound 5, 3-epi-Betulin], the “inhibition activity against variant, in words” value [1] is reported as “did not perform as well”, the EC50 (SARS-CoV-2 SEMpv (N501Y)) is reported as 13.1 µM and the EC50 (SARS-CoV-2 SEMpv (D614G)) is reported as 12.5 µM.
